The text below walks through data of patent EP1025114B1, “3'-N-MODIFIED 6-O-SUBSTITUTED ERYTHROMYCIN KETOLIDE DERIVATIVES HAVING ANTIBACTERIAL ACTIVITY” (priority 1997, dated 1999).

The structures appear in SMILES notation. In brackets after ≈: the same amount, converted by molar mass. Where only a bound is given, the exact number is not on record here.

Holding throughout (experiment): In vitro antibacterial activity, agar dilution MIC
Assay type in all cases: cell-based
A general note: Agar dilution tests growth on a series of plates holding different concentrations.

Experiment [1] concerns Streptococcus pyogenes 930. The note with it: Streptococcus pyogenes 930 (organism code MM); BHI agar, 35-37 °C, 20 to 24 hours; unit assumed. How it is done: (§1) Representative compounds of the present invention were assayed in vitro for antibacterial activity as follows: Twelve petri dishes containing successive aqueous dilutions of the test compound mixed with 10 mL of sterilized Brain Heart infusion (BHI) agar (Difco 0418-01-5) were prepared. Each plate was inoculated with 1:100 (or 1:10 for slow-growing strains, such as Micrococcus and Streptococcus) dilutions of up to 32 different microorganisms, using a Steers replicator block. […] In addition, a control plate, using BHI agar containing no test compound, was prepared and incubated at the beginning and end of each test.
(§2) An additional plate containing a compound having known susceptibility patterns for the organisms being tested and belonging to the same antibiotic class as the test compound was also prepared and incubated as a further control, as well as to provide test-to-test comparability.
(§3) After incubation, each plate was visually inspected. The minimum inhibitory concentration (MIC) was defined as the lowest concentration of drug yielding no growth, a slight haze, or sparsely isolated colonies on the inoculum spot as compared to the growth control.

Experiment [2] relates to Streptococcus Pheumoniae GYR 1171. The note with it: Streptococcus Pheumoniae GYR 1171 (organism code YY); BHI agar, 35-37 °C, 20 to 24 hours; unit assumed. How it is done: as §1, §2, §3
The test system of experiment [3] is Streptococcus bovis A-5169. To be noted: Streptococcus bovis A-5169 (organism code JJ); BHI agar, 35-37 °C, 20 to 24 hours; unit assumed. How it is done: as §1, §2, §3
Experiment [4] relates to Staphylococcus aureus A-5278. The note with it: Staphylococcus aureus A-5278 (organism code CC); BHI agar, 35-37 °C, 20 to 24 hours; unit assumed. How it is done:
as §1, §2, §3

The next experiment has as its system Escherichia coli DC-2. The note with it: Escherichia coli DC-2 (organism code SS); BHI agar, 35-37 °C, 20 to 24 hours; unit assumed. How it is done: as §1, §2, §3
In experiment [5] the test system is Streptococcus Pheumoniae ATCC6303. To be noted: Streptococcus Pheumoniae ATCC6303 (organism code XX); BHI agar, 35-37 °C, 20 to 24 hours; unit assumed. As for the experimental part: as §1, §2, §3
The subject of the next experiment is Escherichia coli JUHL. To be noted: Escherichia coli JUHL (organism code QQ); BHI agar, 35-37 °C, 20 to 24 hours; unit assumed. As for the experimental part:
as §1, §2, §3

Experiment [6] relates to Staphylococcus aureus ATCC 6538P. To be noted: Staphylococcus aureus ATCC 6538P (organism code AA); BHI agar, 35-37 °C, 20 to 24 hours; unit assumed. How it is done:
as §1, §2, §3

Experiment [7] concerns Streptococcus agalactiae CMX 508. The note with it: Streptococcus agalactiae CMX 508 (organism code KK); BHI agar, 35-37 °C, 20 to 24 hours; unit assumed. How it is done: as §1, §2, §3
Experiment [8] deals with Staphylococcus aureus A5177. The note with it: Staphylococcus aureus A5177 (organism code BB); BHI agar, 35-37 °C, 20 to 24 hours; unit assumed. As for the experimental part: as §1, §2, §3
For experiment [9], the system named is Micrococcus luteus ATCC 9341. The note with it: Micrococcus luteus ATCC 9341 (organism code OO); BHI agar, 35-37 °C, 20 to 24 hours; unit assumed. How it is done: as §1, §2, §3
For experiment [10], the system named is Streptococcus pyogenes EES61. To be noted: Streptococcus pyogenes EES61 (organism code LL); BHI agar, 35-37 °C, 20 to 24 hours; unit assumed. How it is done:
as §1, §2, §3

The test system of experiment [11] is Staphylococcus aureus CMX 553. The note with it: Staphylococcus aureus CMX 553 (organism code FF); BHI agar, 35-37 °C, 20 to 24 hours; unit assumed. How it is done:
as §1, §2, §3

Experiment [12] concerns Nocardia Asteroides ATCC9970. To be noted: Nocardia Asteroides ATCC9970 (organism code VV); BHI agar, 35-37 °C, 20 to 24 hours; unit assumed. How it is done: as §1, §2, §3
Experiment [13] relates to Staphylococcus aureus NCTC10649M. The note with it: Staphylococcus aureus NCTC10649M (organism code EE); BHI agar, 35-37 °C, 20 to 24 hours; unit assumed. As for the experimental part: as §1, §2, §3
In the next experiment the test system is Candida albicans CCH 442. The note with it: Candida albicans CCH 442 (organism code TT); BHI agar, 35-37 °C, 20 to 24 hours; unit assumed. As for the experimental part:
as §1, §2, §3

The subject of the next experiment is Escherichia coli SS. To be noted: Escherichia coli SS (organism code RR); BHI agar, 35-37 °C, 20 to 24 hours; unit assumed. How it is done:
as §1, §2, §3

The subject of experiment [14] is Staphylococcus aureus 1775. To be noted: Staphylococcus aureus 1775 (organism code GG); BHI agar, 35-37 °C, 20 to 24 hours; unit assumed. As for the experimental part:
as §1, §2, §3

Experiment [15] has as its system Mycobacterium smegmatis ATCC 114. The note with it: Mycobacterium smegmatis ATCC 114 (organism code UU); BHI agar, 35-37 °C, 20 to 24 hours; unit assumed. How it is done:
as §1, §2, §3

Experiment [16] has as its system Streptococcus Pheumoniae 5649. The note with it: Streptococcus Pheumoniae 5649 (organism code ZZA); BHI agar, 35-37 °C, 20 to 24 hours; unit assumed. As for the experimental part: as §1, §2, §3
In experiment [17] the test system is Streptococcus pyogenes PIU 2548. To be noted: Streptococcus pyogenes PIU 2548 (organism code NN); BHI agar, 35-37 °C, 20 to 24 hours; unit assumed. How it is done:
as §1, §2, §3

Experiment [18] relates to Haemophilis Influenzae DILL AMP R. The note with it: Haemophilis Influenzae DILL AMP R (organism code WW); BHI agar, 35-37 °C, 20 to 24 hours; unit assumed. As for the experimental part:
as §1, §2, §3

The test system of experiment [19] is Micrococcus luteus ATCC 4698. The note with it: Micrococcus luteus ATCC 4698 (organism code PP); BHI agar, 35-37 °C, 20 to 24 hours; unit assumed. As for the experimental part: as §1, §2, §3
Experiment [20] deals with Staphylococcus aureus CMX 642A. To be noted: Staphylococcus aureus CMX 642A (organism code DD); BHI agar, 35-37 °C, 20 to 24 hours; unit assumed. As for the experimental part: as §1, §2, §3
Experiment [21] has as its system Enterococcus faecium ATCC 8043. To be noted: Enterococcus faecium ATCC 8043 (organism code II); BHI agar, 35-37 °C, 20 to 24 hours; unit assumed. As for the experimental part: as §1, §2, §3
For experiment [22], the system named is Staphylococcus epidermidis 3519. The note with it: Staphylococcus epidermidis 3519 (organism code HH); BHI agar, 35-37 °C, 20 to 24 hours; unit assumed. As for the experimental part: as §1, §2, §3
Experiment [23] relates to Streptococcus Pheumoniae 5979. To be noted: Streptococcus Pheumoniae 5979 (organism code ZZ); BHI agar, 35-37 °C, 20 to 24 hours; unit assumed. As for the experimental part:
as §1, §2, §3

On to `CC[C@H]1OC(=O)[C@H](C)[C@@H](O[C@H]2C[C@@](C)(OC)[C@@H](O)[C@H](C)O2)[C@H](C)[C@@H](O[C@@H]2O[C@H](C)C[C@H](N(C)C)[C@H]2O)[C@](C)(O)C[C@@H](C)C(=O)[C@H](C)[C@@H](O)[C@]1(C)O` [Ery. A, Erythromycin A, reference compound], for which the MIC in [1] is above 100 µg/mL; in [2] it was 0.06 µg/mL (≈ 0.0818 µM); in experiment [3], 0.02 µg/mL (≈ 0.0273 µM); in experiment [4], above 100 µg/mL; against Escherichia coli DC-2, above 100 µg/mL; in [5], 0.06 µg/mL (≈ 0.0818 µM). Moreover, the MIC was above 100 µg/mL against Escherichia coli JUHL; 0.2 µg/mL (≈ 0.273 µM) in experiment [6]; 0.05 µg/mL (≈ 0.0681 µM) in experiment [7]; 3.1 µg/mL (≈ 4.22 µM) in experiment [8]; 0.05 µg/mL (≈ 0.0681 µM) in experiment [9]; 0.05 µg/mL (≈ 0.0681 µM) in experiment [10]. The MIC in [11] is 0.39 µg/mL (≈ 0.531 µM); in experiment [12], 0.1 µg/mL (≈ 0.136 µM); in experiment [13], 0.39 µg/mL (≈ 0.531 µM); with Candida albicans CCH 442 it was above 100 µg/mL; with Escherichia coli SS, 0.78 µg/mL (≈ 1.06 µM); in [14], above 100 µg/mL. Moreover, the MIC in [15] was 3.1 µg/mL (≈ 4.22 µM); in experiment [16] it was 16 µg/mL (≈ 21.8 µM); in [17] it was 6.2 µg/mL (≈ 8.45 µM); in [18] it was 4 µg/mL (≈ 5.45 µM); in [19], 0.2 µg/mL (≈ 0.273 µM); in [20] it was 0.39 µg/mL (≈ 0.531 µM). In addition, the results for the MIC in experiment [21] and in experiment [22] were 0.05 µg/mL (≈ 0.0681 µM) and 0.39 µg/mL (≈ 0.531 µM), respectively.
On to `C#CCN(C)[C@H]1C[C@@H](C)O[C@@H](O[C@@H]2[C@@H](C)C(=O)[C@@H](C)C(=O)O[C@H](CC)[C@@]3(C)OC(=O)N[C@@H]3[C@@H](C)C(=O)[C@H](C)C[C@@]2(C)OCC=Cc2cnc3ccccc3c2)[C@@H]1O` [Example 10, Compound of Formula (II); R is -CH2CH=CH-(3-quinolyl), R^p is H, W is absent, R^w is H, R^1 is CH2-C≡CH, R^2 is CH3-], for which the MIC was 6.2 µg/mL in [1]; 0.03 µg/mL in experiment [2]; 0.02 µg/mL in [3]; above 100 µg/mL in experiment [4]; above 100 µg/mL with Escherichia coli DC-2; 0.03 µg/mL in experiment [5]. Further, the MIC is above 100 µg/mL in the experiment with Escherichia coli JUHL; 0.2 µg/mL in [6]; 0.01 µg/mL in experiment [7]; 0.39 µg/mL in experiment [8]; 0.1 µg/mL in [9]; 0.01 µg/mL in experiment [10]. Further, the MIC is 0.2 µg/mL in experiment [11]; 0.2 µg/mL in experiment [12]; 0.1 µg/mL in [13]; above 100 µg/mL in the experiment on Candida albicans CCH 442; 32 µg/mL in experiment [23]; 1.56 µg/mL in the experiment on Escherichia coli SS. The MIC is above 100 µg/mL in experiment [14]; 1.56 µg/mL in experiment [15]; 0.25 µg/mL in experiment [16]; 0.39 µg/mL in experiment [17]; 0.39 µg/mL in experiment [19]; 0.2 µg/mL in experiment [20]. The results for the MIC in experiment [21] and in experiment [22] were 0.05 µg/mL and 0.2 µg/mL, respectively.
Turning to `CC[C@H]1OC(=O)[C@H](C)C(=O)[C@H](C)[C@@H](O[C@@H]2O[C@H](C)C[C@H](N(C)Cc3cccnc3)[C@H]2O)[C@](C)(OCC=Cc2cnc3ccccc3c2)C[C@@H](C)C(=O)[C@H](C)[C@H]2NC(=O)O[C@@]21C` [Example 21, Compound of Formula (II); R is -CH2CH=CH-(3-quinolyl), R^p is H, W is absent, R^w is H, R^1 is CH2-(3-pyridyl), R^2 is CH3], the MIC in experiment [18] was 4 µg/mL.
For the compound `CC[C@H]1OC(=O)[C@H](C)C(=O)[C@H](C)[C@@H](O[C@@H]2O[C@H](C)C[C@H](N(C)Cc3cccc(O)c3)[C@H]2O)[C@](C)(OCC=Cc2cnc3ccccc3c2)C[C@@H](C)C(=O)[C@H](C)[C@H]2NC(=O)O[C@@]21C` [Example 22, Compound of Formula (II); R is -CH2CH=CH-(3-quinolyl), R^p is H, W is absent, R^w is H, R^1 is CH2-(3-hydroxyphenyl), R^2 is CH3], the MIC in experiment [1] is 3.1 µg/mL; in experiment [2], 0.03 µg/mL; in [3] it was 0.1 µg/mL; in [4], above 100 µg/mL; with Escherichia coli DC-2, above 100 µg/mL; in [5], 0.03 µg/mL. Moreover, the MIC is above 100 µg/mL in the experiment with Escherichia coli JUHL; 0.2 µg/mL in [6]; 0.1 µg/mL in experiment [7]; 0.39 µg/mL in [8]; 0.1 µg/mL in [9]; 0.1 µg/mL in experiment [10]. Moreover, the MIC is 0.39 µg/mL in experiment [11]; 0.2 µg/mL in experiment [12]; 0.39 µg/mL in [13]; above 100 µg/mL with Candida albicans CCH 442; 0.39 µg/mL against Escherichia coli SS; above 100 µg/mL in experiment [14]. Further, the MIC in experiment [15] stood at 0.78 µg/mL; in [16] it was 0.25 µg/mL; in experiment [17], 0.1 µg/mL; in [18], 4 µg/mL; in experiment [19], 0.1 µg/mL; in [20] it was 0.39 µg/mL. Besides, the MIC in [21] was 0.1 µg/mL; in experiment [22], 0.39 µg/mL.
